Columns and labels:
[1] = system: Human immunodeficiency virus 1; assay: Antiviral activity against HIV1 harboring Y181C mutant infected in human MT4 cells assessed as protection against virus-induced cytopathicity; type: functional, organism-based; settings: Human immunodeficiency virus 1, MT4
[2] = Cytotoxicity against human MT4 cells assessed as reduction in cell viability; type: toxicity, cell-based
[3] = system: Human immunodeficiency virus 1; assay: Antiviral activity against wild type HIV1 IIIB infected in human MT4 cells assessed as protection against virus-induced cytopathicity; type: functional, organism-based; settings: Human immunodeficiency virus 1, IIIB
[4] = system: Human immunodeficiency virus 1; assay: Antiviral activity against HIV1 harboring L100I mutant infected in human MT4 cells assessed as protection against virus-induced cytopathicity; type: functional, organism-based; settings: Human immunodeficiency virus 1, MT4
[5] = system: Human immunodeficiency virus 1; assay: Antiviral activity against HIV1 harboring K103 N mutant infected in human MT4 cells assessed as protection against virus-induced cytopathicity; type: functional, organism-based; settings: Human immunodeficiency virus 1, MT4
[6] = target: Human immunodeficiency virus type 1 reverse transcriptase (Human immunodeficiency virus 1, UniProt Q72547); assay: Inhibition of wild type HIV-1 reverse transcriptase assessed as inhibition of biotin deoxyuridine triphosphate incorporation into […]
[7] = Selectivity index, ratio of CC50 for cytotoxicity against human MT4 cells to EC50 for antiviral activity against wild type HIV1 IIIB infected in human MT4 cells; type: toxicity, cell-based; settings: read-out: Ratio CC50/EC50
[8] = system: Human immunodeficiency virus 1; assay: Antiviral activity against HIV1 harboring Y188L mutant infected in human MT4 cells assessed as protection against virus-induced cytopathicity; type: functional, organism-based; settings: Human immunodeficiency virus 1, MT4
[9] = system: Human immunodeficiency virus 1; assay: Antiviral activity against HIV1 harboring E138K mutant infected in human MT4 cells assessed as protection against virus-induced cytopathicity; type: functional, organism-based; settings: Human immunodeficiency virus 1, MT4

| Structure (SMILES) | EC50 [1] | CC50 [2] | EC50 [3] | EC50 [4] | EC50 [5] | IC50 [6] | selectivity ratio [7] | EC50 [8] | EC50 [9] |
| --- | --- | --- | --- | --- | --- | --- | --- | --- | --- |
| Cc1ccc(Sc2c(C3CC3)c(=O)[nH]c(=O)n2COCc2ccccc2)c(C)c1 | > 32.2 µM | 32.2 µM | 4.75 µM | 4.75 µM | > 32.2 µM | 5.39 µM | 7 | > 32.2 µM | > 32.2 µM |
| Cc1cccc(Sc2c(C3CC3)c(=O)[nH]c(=O)n2COCc2ccccc2)c1 | 2.56 µM | 32.5 µM | 0.028 µM | 0.17 µM | 2.76 µM | – | 1160 | > 32.5 µM | 0.16 µM |
| O=c1[nH]c(=O)n(COCc2ccccc2)c(Sc2ccc(Br)cc2)c1C1CC1 | 4.11 µM | 25.9 µM | 6.18 µM | 4.05 µM | > 25.9 µM | 3.92 µM | > 4 | > 25.9 µM | 9.8 µM |
| COc1ccc(OC)c(Sc2c(C3CC3)c(=O)[nH]c(=O)n2COCc2ccccc2)c1 | 5.68 µM | 33.4 µM | 0.22 µM | 0.66 µM | > 33.4 µM | – | 150 | > 33.4 µM | 0.99 µM |
| O=c1[nH]c(=O)n(COCc2ccccc2)c(Sc2ccc(F)cc2)c1C1CC1 | 6.4 µM | 38.8 µM | 0.75 µM | 1.88 µM | > 40.8 µM | – | 53 | > 40.8 µM | 2.03 µM |
| COc1ccc(Sc2c(C3CC3)c(=O)[nH]c(=O)n2COCc2ccccc2)cc1 | – | 44.6 µM | > 44.6 µM | – | – | – | < 1 | – | – |
| O=c1[nH]c(=O)n(COCc2ccccc2)c(Sc2ccccc2F)c1C1CC1 | 4.47 µM | 34.7 µM | 0.043 µM | 0.45 µM | 4.99 µM | 0.06 µM | 813 | > 34.7 µM | 0.35 µM |
| COc1cccc(OC)c1Sc1c(C2CC2)c(=O)[nH]c(=O)n1COCc1ccccc1 | > 284 µM | > 284 µM | 6.7 µM | 144 µM | > 284 µM | – | > 40 | > 284 µM | > 284 µM |
| O=c1[nH]c(=O)n(COCc2ccccc2)c(Sc2cc(F)cc(F)c2)c1C1CC1 | 4.27 µM | 30 µM | 0.036 µM | 0.43 µM | 3.01 µM | 0.1 µM | 842 | > 30 µM | 0.19 µM |
| O=c1[nH]c(=O)n(COCc2ccccc2)c(Sc2ccccc2Br)c1C1CC1 | 2.66 µM | 27.2 µM | 0.15 µM | 0.54 µM | 7.21 µM | 0.16 µM | 184 | > 27.2 µM | 0.41 µM |
| Cc1ccccc1Sc1c(C2CC2)c(=O)[nH]c(=O)n1COCc1ccccc1 | 5.35 µM | 30.1 µM | 0.15 µM | 1.07 µM | > 7.96 µM | 0.3 µM | 203 | > 30.1 µM | 0.89 µM |
| O=c1[nH]c(=O)n(COCc2ccccc2)c(Sc2cc(Cl)cc(Cl)c2)c1C1CC1 | 1.71 µM | 28.7 µM | 0.073 µM | 0.4 µM | 2.74 µM | 0.11 µM | 395 | 7.7 µM | 0.45 µM |
| O=c1[nH]c(=O)n(COCc2ccccc2)c(Sc2ccc(Cl)cc2Cl)c1C1CC1 | ≥ 11.1 µM | 34 µM | 5.3 µM | 4.43 µM | > 30 µM | 5.56 µM | 6 | > 30 µM | > 30 µM |
| O=c1[nH]c(=O)n(COCc2ccccc2)c(Sc2ccc(Cl)cc2)c1C1CC1 | 3.78 µM | 30.2 µM | 4.46 µM | 4.48 µM | > 30.3 µM | 5.78 µM | 7 | > 30.3 µM | > 30.3 µM |
| O=c1[nH]c(=O)n(COCc2ccccc2)c(Sc2ccccc2)c1C1CC1 | 9.83 µM | 49.9 µM | 0.039 µM | 1.23 µM | > 30.7 µM | – | 1250 | > 30.7 µM | 2.79 µM |
| O=c1[nH]c(=O)n(COCc2ccccc2)c(Sc2ccc(F)cc2F)c1C1CC1 | ≥ 9.44 µM | 33.5 µM | 1.2 µM | 3.1 µM | > 33.5 µM | 1.8 µM | 28 | > 33.5 µM | 8.38 µM |
| O=c1[nH]c(=O)n(COCc2ccccc2)c(Sc2cccc(F)c2F)c1C1CC1 | > 31.4 µM | 31.4 µM | 0.14 µM | 0.5 µM | > 3.84 µM | 0.24 µM | 224 | > 31.4 µM | 0.5 µM |

| Structure (SMILES) | EC50 [1] | CC50 [2] | EC50 [3] | EC50 [4] | EC50 [5] | IC50 [6] | selectivity ratio [7] | EC50 [8] | EC50 [9] |
| --- | --- | --- | --- | --- | --- | --- | --- | --- | --- |
| O=c1[nH]c(=O)n(COCc2ccccc2)c(Sc2cccc(F)c2)c1C1CC1 | 3.36 µM | 38.8 µM | 0.025 µM | 0.25 µM | 2.99 µM | 0.04 µM | 1520 | > 38.8 µM | 0.13 µM |
| O=c1[nH]c(=O)n(COCc2ccccc2)c(Sc2c(Cl)cccc2Cl)c1C1CC1 | > 22.9 µM | 22.9 µM | 3.14 µM | 2.65 µM | > 22.9 µM | 4.23 µM | 7 | > 22.9 µM | 3.07 µM |
| O=c1[nH]c(=O)n(COCc2ccccc2)c(Sc2cccc(Cl)c2)c1C1CC1 | 3.28 µM | 29.7 µM | 0.048 µM | 0.36 µM | 3.74 µM | 0.06 µM | 613 | > 29.7 µM | 0.19 µM |
| O=c1[nH]c(=O)n(COCc2ccccc2)c(Sc2ccccc2Cl)c1C1CC1 | 2.94 µM | 27.3 µM | 0.053 µM | 0.63 µM | 9.14 µM | 0.09 µM | 515 | > 27.3 µM | 0.43 µM |
| O=c1[nH]c(=O)n(COCc2ccccc2)c(Sc2c(F)cccc2F)c1C1CC1 | > 29 µM | 29 µM | 0.34 µM | 2.01 µM | > 29 µM | 0.72 µM | 89 | > 29 µM | 1.51 µM |
| COc1ccc(Sc2c(C3CC3)c(=O)[nH]c(=O)n2COCc2ccccc2)c(OC)c1 | – | 30.9 µM | > 30.9 µM | – | – | – | < 1 | – | – |
| CC(C)c1c(Sc2cccc3ccccc23)n(COCc2ccccc2)c(=O)[nH]c1=O | – | 34 µM | 0.063 µM | – | – | – | 565 | – | – |
| O=c1[nH]c(=O)n(COCc2ccccc2)c(Sc2cccc(Br)c2)c1C1CC1 | 3.09 µM | 26.5 µM | 0.11 µM | 0.37 µM | 3.64 µM | 0.07 µM | 239 | > 26.5 µM | 0.24 µM |
| O=c1[nH]c(=O)n(COCc2ccccc2)c(Sc2cc(Cl)ccc2Cl)c1C1CC1 | 0.51 µM | 33.9 µM | 0.029 µM | 0.12 µM | 1.51 µM | 0.03 µM | 1140 | 7.92 µM | 0.07 µM |
| O=c1[nH]c(=O)n(COCc2ccccc2)c(Sc2cccc(Cl)c2Cl)c1C1CC1 | > 27.4 µM | 27.4 µM | 0.8 µM | 2.34 µM | > 27.4 µM | 1.22 µM | 34 | > 27.4 µM | 0.67 µM |
| Cc1ccc(C)c(Sc2c(C3CC3)c(=O)[nH]c(=O)n2COCc2ccccc2)c1 | 2.01 µM | 74.8 µM | 0.071 µM | 0.19 µM | 4.16 µM | 0.08 µM | 1050 | 19.1 µM | 0.23 µM |
| COc1cc(OC)cc(Sc2c(C3CC3)c(=O)[nH]c(=O)n2COCc2ccccc2)c1 | 9.63 µM | 29.7 µM | 0.77 µM | 1.79 µM | > 29.7 µM | – | 38 | > 29.7 µM | 3.07 µM |
| O=c1[nH]c(=O)n(COCc2ccccc2)c(Sc2cccc3ccccc23)c1C1CC1 | 24.5 µM | 30.7 µM | 0.84 µM | 23.1 µM | > 177 µM | – | 36 | > 177 µM | 31.6 µM |
| Cc1ccc(Sc2c(C3CC3)c(=O)[nH]c(=O)n2COCc2ccccc2)cc1 | 5.22 µM | 31.8 µM | 2.59 µM | 2.05 µM | > 31.8 µM | 3.8 µM | 12 | > 31.8 µM | 10.2 µM |
| Cc1c(Sc2ccccc2)n(COCCO)c(=O)[nH]c1=O [HEPT] | – | 740 µM | 7 µM | – | – | – | 106 | – | – |
| Cc1ccnc2c1NC(=O)c1cccnc1N2C1CC1 [NEVIRAPINE] | 7.04 µM | > 9.51 µM | 0.086 µM | 1.28 µM | 5.33 µM | – | – | > 9.51 µM | 0.14 µM |
| Cc1cn([C@H]2C[C@H](N=[N+]=[N-])[C@@H](CO)O2)c(=O)[nH]c1=O [ZIDOVUDINE] | 0.02 µM | > 7.48 µM | 0.028 µM | 0.016 µM | 0.026 µM | 2.2 µM | > 309 | 0.029 µM | – |
